Laboratory results as given in patent publication US20050192217A1, “Utilization of lipopeptides or lipoproteins in wound treatment and infection prophylaxis” (priority 1998, published 2005).
Values joined by “and” are separate entries in the source; they are usually repeats but may differ in a detail not shown here. Equal values may be shown once. Marks after values point to notes of the source that are not given here. Ends that are not written are not given here. * marks the point of attachment. X1 = 2,3‑bispalmitoyloxy‑(2S)‑propyl, CCCCCCCCCCCCCCCC(=O)OC[C@@H](C*)OC(=O)CCCCCCCCCCCCCCC; Propyl(2R-PamO,3-PamO) = CCCCCCCCCCCCCCCC(=O)OC[C@H](C*)OC(=O)CCCCCCCCCCCCCCC

Tests used:
[1] = test system: wounds; experiment: Cell colonization and proliferation (nucleic acids) in treated wounds; type: in vivo, C57BLKS/J-m+/+Lepr^db mice (diabetic); conditions: diabetic mice, after 10 days
Method: 2. Cell colonization and proliferation were measured in the skin section (0.8 cm diameter) of wounds which were treated with various amounts of MALP-2. For this experiment, (C57BLKS/J-m+/+Lepr^db mice (diabetic) were shaved on the back and hair was removed with Veet. The animals were anesthetized with metofane and their backs were disinfected with Braunol. Then circular skin segments (0.8 cm diameter) were taken from the back of each mouse. The wounds were covered with transparent hydrofilm (Hartmann, Germany); MALP-2 or other vehicles were injected into the wound bed through the film in a volume of 50 μL. After 10 days, the animals were killed; the thin layer of cells, which closes the wound, was sectioned ([…]). The punched samples were hydrolyzed and the nucleic acids determined as before. […] At this dose, 349±24 μg of nucleic acid per biopsy sample were found in the animals treated with MALP-2 while the value was 142±22 μg in the comparison samples (4 animals per group; p<0.0001).

[2] = test system: skin sections; experiment: Infiltration of cells and proliferation by nucleic acids in skin sections after intracutaneous injection; type: in vivo, C57BLKS/J mice
Method: 1. Determination of infiltration of cells and proliferation by measurement of nucleic acids in skin sections after intracutaneous (ic) injection of various MALP-2 doses. On day 1, the back of C57BLKS/J mice was shaved and hair was removed with Veet. On day 0, the animals were anesthetized with metofane; various doses of MALP-2, dissolved in 30 percent 2-propanol, were injected in volumes of up to 10 μL onto the back (ic). Corresponding volumes of the vehicle without MALP-2 were injected onto the back of the same mice at another location. The animals were killed 10 days later, and punched skin sections (diameter 0.8 cm) were taken from the MALP-2 injection sites and from the control injection sites. The skin biopsies were defatted by extraction with methanol, methanol/chloroform (1+1) and chloroform for 15 minutes and were hydrolyzed in 10 N Hcl overnight at 110° C. The samples were dried, taken up in water and clarified by filtration through a sterile filter (0.2 μm); the nucleic acids were determined by measuring the absorption at 260 nm. […] At this dose, the nucleic acid content increased at the MALP-2 injection site by 97±43% in comparison to the corresponding control biopsy (4 animals per group).

[3] = test system: peritoneal leukocytes; experiment: Leukocyte inflow into the peritoneal cavity after intraperitoneal injection; type: in vivo, NMRI mice; conditions: for PEC: 72 hours
Method: The model of inflow of granulocytes and macrophages into the peritoneal cavity of the mouse served as an example of the effectiveness of synthetic lipopeptides or liposomes into which such lipopeptides were incorporated. NMRI-outbred mice were used as experimental animals in order to exclude genetic peculiarities.
At time 0, the following preparations are injected in a sterile manner and in physiological sodium chloride solution into the peritoncal cavity of the experimental animals. Groups of 6 mice were killed after different times, the peritoneal cavity was washed with 1.2 ml of sterile sodium chloride solution and the number of leukocytes and the leukocyte composition was determined in this cell suspension.
Here, as above, groups of 5 NMRI mice were treated with different amounts of R-MALP-2=S-[2,3-Bispalmitoyloxy-(2R)-propyl]cysteinyl-GNNDESNISFKEK (SEQ ID NO:10) or S-MALP-2=S-[2,3-Bispalmitoyloxy-(2S)-propyl]cysteinyl-GNNDESNISFKEK (SEQ ID NO:8)applied intraperitoneally, and after 3 days the total number as well as the composition of the peritoneal leukocytes were determined.

[4] = test system: wounds; experiment: Wound-healing experiment; type: in vivo, (diabetic) C57BLKS/J-m+/+-Lepr^db mice; conditions: 5 μg in 100 μL into the wound each day up to day 4, diabetic mice
Method: A wound-healing experiment was carried out as follows. On day 1, (diabetic) C57BLKS/J-m+/+-Lepr^db mice were shaved on the back. On day 0, the animals were anesthetized with ether and the backs were disinfected with Braunoderm. After that, circular regions (1.3 cm diameter) were cut from the skin of the back of each mouse. The edges of the wound were treated with benzoin tincture; then 100 μL of the MALP-2 preparation or of the vehicles were introduced into each wound (10 mice for each treatment group). The wounds were covered with transparent patches of Tegaderm. Each day, up to day 4, 100 μL of the preparation (content 5 μg of MALP-2) or vehicle preparation was injected into the wound bed through the Tegaderm patches or placed in the wound when the bandage was changed. The mice were kept individually in separate cages. In order to avoid infections, baytril (Bayer) was introduced in the drinking water (50 mg/L of enrofloxacin). The bandages were changed once a week under ether anesthesia, and the wound edges were recorded on microscope slides. The areas shown were determined with a standard CCD camera using Scionlmage software. The wounds were checked visually for infections; liquid samples from obviously infected wounds were tested on blood agar plates. Mice with infected wounds were removed from further analyses.

[5] = test system: skin of NMRI mice; experiment: Intracutaneous application in the skin: leukocyte accumulation and new tissue formation; type: in vivo; conditions: 2 μg intracutaneously
Method: The following experiment was carried out in order to show the effect of MALP-2 upon intracutaneous application.

[6] = test system: abdominal sepsis; experiment: Colon ascendens stent peritonitis model, survival after pretreatment; type: in vivo, C57BL/6 mice; conditions: 2 μg i.p. two days before the surgical intervention
Method: “Colon ascendens stent peritonitis” is a new model for abdominal sepsis, which may follow surgical intervention [Zantl et al., Infekt. Immun., 66:2300-2309 (1998)]. The following experiments were carried out in order to evaluate the ability of MALP-2 to increase the survival rate in this model. Groups of 12 to 18 C57BL/6 mice were injected intraperitoneally with 2 μg of S-MALP-2 in 200 μL of physiological sodium chloride solution or with the same volume of physiological sodium chloride solution either 2 or 4 days before surgical intervention. The surgical intervention was carried out under ether anesthesia. The abdomen was disinfected with 70% ethanol and then opened by section in the middle line (1 cm). A venous catheter (16 gauge) was inserted into the lumen of the […] colon and secured with two stitches using Ethilon thread (7/0). Then the inner needle of the stent was removed, the catheter was shortened to a length of a few millimeters and a small drop of feces was pressed out from the catheter. The peritoneal cavity was rinsed with 0.5 Ml of sodium chloride solution before closing the abdomen. Among the mice with the control, sodium chloride solution (18 per group), none lived longer than 90 h. […]

S-[2,3-bispalmitoyloxy-(2RS)-propyl]cysteinyl-GNNDESNISFKEK [MALP-2]
nucleic acid per biopsy sample ([1]; 5 μg per wound, 4 animals per group): 349 ± 24 µg | optimal dose per wound ([1]; injected into the wound bed): 5 µg | increase of nucleic acid content at the injection site in comparison to the control biopsy ([2]; 5 μg per injection site ic, 10 days, 4 animals per group): 97±43% | optimal dose per injection site ([2]; intracutaneous injection, skin biopsy 10 days later): 5 µg | Peritoneal cells ([3]; 9 μg i.p., after 72 hours, groups of 6 animals, mean): 11.2 ± 3.1^b ×10^6

S-[2,3-Bispalmitoyloxy-(2R)-propyl]cysteinyl-GNNDESNISFKEK (C(Propyl(2R-PamO,3-PamO))GNNDESNISFKEK) [R-MALP-2, reference compound]
PEC ([3]; 10 μg i.p., group mean φ of 5): 8.64 ± 3 ×10^6 | PEC ([3]; 10 μg i.p., individual animals A-E): 11.1 ×10^6 and 4.05 ×10^6 and 11.4 ×10^6 and 7.65 ×10^6 and 9 ×10^6

S-[2,3-Bispalmitoyloxy-(2S)-propyl]cysteinyl-GNNDESNISFKEK (C(X1)GNNDESNISFKEK) [S-MALP-2]
wound healing (wound area, FIG. 7) [4]: significant acceleration of wound healing | accumulation of leukocytes at the injection site ([5]; after 3 days): a clear accumulation of leukocytes is observed | formation of new tissue and vessels ([5]; after 6 days): new tissue and vessels are formed | animals surviving for 150 h or longer [6]: 4 out of 12 | PEC ([3]; 1 μg i.p., group mean φ of 5): 10.2 ± 2.2^a ×10^6 | PEC ([3]; 1 μg i.p., individual animals A-E): 9.1 ×10^6 and 10.8 ×10^6 and 9.35 ×10^6 and 13.7 ×10^6 and 7.9 ×10^6 | PEC ([3]; 5 μg i.p., group mean φ of 5): 14.5 ± 1.9^a,b ×10^6 | PEC ([3]; 5 μg i.p., individual animals A-E): 14.4 ×10^6 and 15.2 ×10^6 and 17.3 ×10^6 and 13.1 ×10^6 and 12.5 ×10^6 | in vivo effect on peritoneal leukocytes, S-MALP-2 compared with R-MALP-2 ([3]; i.p., after 3 days, groups of 5 NMRI mice): clearly more effective
